Patent US20150218563A1, “COMPOSITIONS AND METHODS FOR MODULATION OF RORGAMMAT FUNCTIONS” (priority 2004, published 2015)

System: mRORγt
Test: shRNA inhibition of mRORγt expression in AKR1 cells, monitored by Western blot
Assay type: cell-based, mouse
Conditions: AKR1 cells infected with retrovirus encoding the shRNA vs empty retroviral vector, HMG-1 loading control
Text: FIG. 42. Delivery of siRNA Hairpins by a Retroviral vector. […] After the AKR1 cells were infected with these vectors, mRORγt expression was monitored by Western blot. HMG-1 was used as an internal loading control. […] The effect lasted for at least two to three weeks, as shown in the lower panel.
Two shRNA molecules were generated using the DNA sequence of SEQ ID NO: 3 (mouse RORγt). In particular, the nucleotides from position 358-378 of SEQ ID NO: 3 and from position 1269-1289 of SEQ ID NO: 3 (mouse RORγt) were used to generate shRNA molecules. These sequences are as follows:
When tested for the ability to inhibit expression of RORγt, as well as expression of a target molecule for RORgt, significant inhibition of expression was observed. (See FIGS. 42 and 43).

## GGAACTGGCTTTCCATCATCA (expressed or natural sequence) [SEQ ID NO: 10]
  inhibition of RORγt expression: shown to inhibit the expression of RORγt

## GGAGCAGACACACTTACATAC (chemistry not given here) [SEQ ID NO: 9]
  inhibition of RORγt expression: shown to inhibit the expression of RORγt
